Laboratory results reported in article PMC6511888, “Synthesis, Biological Evaluation, and Molecular Modeling Studies of New Thiadiazole Derivatives as Potent P2X7 Receptor Inhibitors” (Frontiers in Chemistry, 2019).

Experiments:
P2Y12R = molecular target: T1, P2Y12R (Mus musculus, UniProt Q9CPV9); assay: 2MeSADP-activated [Ca2+]i shifts in mouse peritoneal macrophages; format: cell-based; settings: concentration not given
T1 construct: endogenous in cells; host or cells: mouse peritoneal macrophages
T1 sequence (Q9CPV9 whole entry): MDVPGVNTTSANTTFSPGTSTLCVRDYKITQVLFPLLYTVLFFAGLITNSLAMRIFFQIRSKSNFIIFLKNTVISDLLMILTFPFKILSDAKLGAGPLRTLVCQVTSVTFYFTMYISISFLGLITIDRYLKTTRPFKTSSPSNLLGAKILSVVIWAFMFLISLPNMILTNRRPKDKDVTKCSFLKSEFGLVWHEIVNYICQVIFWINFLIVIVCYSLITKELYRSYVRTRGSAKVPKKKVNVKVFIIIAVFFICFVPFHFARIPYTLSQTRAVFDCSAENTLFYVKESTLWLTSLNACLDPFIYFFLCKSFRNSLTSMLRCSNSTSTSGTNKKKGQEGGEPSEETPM

Caco-2 cell permeability = format: in vitro ADME; design: Papp at 60 min: dose or concentration left out as unconfirmed; settings: human, Caco-2, pH 7.4; apical to basolateral (A - B); mean ± standard error of three experiments; read-out: Caco-2 apparent permeability (Papp)
Description: Corning® Costar® Transwell plates (Sigma-Aldrich, St. Louis, MO, USA) were used for seeding Caco-2 cells at 3 × 10^5 cells/well bathed with DMEM supplemented with 10% FSB according to Faria and collaborator in 2018 (Faria et al., [2018]). This culture was maintained for up to 21 days in a humidified incubator at 37°C and 5% CO2. Thiadiazole analog, vinblastine (poor permeability control), and propranolol (high permeability control) stock solutions, all at a concentration of 100 mM, were prepared in Hanks' balanced salt solution (HBSS) containing 25 mM HEPES at pH 7.4 with 0.5% (v/v) DMSO. Transport buffer (0.3 ml) was added to each well to equilibrate the cells with the transport buffer. A 24-well enhanced recovery plate containing 1 ml of transport buffer (pH 7.4) was substituted for the feeder tray. The transport buffer in the apical wells was removed, and 0.3 ml of a solution containing thiadiazoles 9b, 9c, 9f, or 11c; vinblastine; or propranolol was added. Then, the cells were replaced for incubation for 60 min. Lucifer yellow concentrations in the donor and acceptor wells were measured in the last of this incubation. Lucifer yellow was measured using an M5 plate reader ([…]) at an excitation wavelength of 485 nm and an emission wavelength of 530 nm.

human P2X7R = molecular target: T2, human P2X7R (Homo sapiens, UniProt Q99572); assay: Dye uptake assay (ethidium bromide) in HEK-293 cells transfected with hP2X7R; format: cell-based; settings: for IC50: ethidium uptake assay, HEK-293 cells transfected with human P2X7R, mean ± SD
T2 construct: expressed in transfected cells; host or cells: HEK-293
T2 sequence (Q99572 1-595): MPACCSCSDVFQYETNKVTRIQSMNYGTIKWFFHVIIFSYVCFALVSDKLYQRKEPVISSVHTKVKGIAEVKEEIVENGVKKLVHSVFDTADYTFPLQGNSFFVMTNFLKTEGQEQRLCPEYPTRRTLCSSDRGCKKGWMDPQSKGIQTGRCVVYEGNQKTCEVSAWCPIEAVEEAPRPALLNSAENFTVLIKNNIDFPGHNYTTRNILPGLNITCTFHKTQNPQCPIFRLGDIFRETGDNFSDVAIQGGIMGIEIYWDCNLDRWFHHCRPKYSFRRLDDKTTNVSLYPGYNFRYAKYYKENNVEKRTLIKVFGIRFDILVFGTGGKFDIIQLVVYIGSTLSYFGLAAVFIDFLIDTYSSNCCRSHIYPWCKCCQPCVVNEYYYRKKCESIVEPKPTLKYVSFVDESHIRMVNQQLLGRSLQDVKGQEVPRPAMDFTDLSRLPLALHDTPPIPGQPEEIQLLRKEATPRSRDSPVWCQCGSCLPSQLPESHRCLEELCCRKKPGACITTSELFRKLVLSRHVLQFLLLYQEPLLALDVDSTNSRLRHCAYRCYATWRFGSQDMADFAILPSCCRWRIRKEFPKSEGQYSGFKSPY
Description: HEK-293 cells expressing human P2X7R were maintained in Dulbecco's modified Eagle's medium (DMEM; Sigma-Aldrich) supplemented with 10% fetal bovine serum (FBS; Prolab, Br) and anti-biotics (50 U/ml penicillin and […] streptomycin) in a humidified 5% CO2 atmosphere at 37°C (Faria et al., [2018]). A total of 5 × 10^5 cells were plated at 37°C in a humidified 5% CO2 atmosphere for 24 h in a 96-well plate for dye uptake or IL-1β release assays.
HEK-293 cells transfected with hP2X7R and mouse peritoneal macrophages were plated at 2.5 × 10^6 or 5 × 10^5 cells/ml, respectively, in 96-well culture plates containing DMEM with 10% FBS and anti-biotics (50 U/ml penicillin and […] streptomycin) in a humidified 5% CO2 atmosphere at 37°C for 24 h (Faria et al., [2018]).
P2X7R antagonist and thiadiazole analogs (1 nM to 0.5 mM) were incubated for 5 min before ATP (5 mM) treatment for 20 min. In the last 5 min of ATP incubation, propidium iodide for macrophages (PI; 750 nM) or ethidium bromide (EB; 25 μM) for HEK-293 cells was added to all wells. PI dye was excited at a wavelength of 530 nm, and its fluorescence emission was read at a wavelength of 590 nm using an M5 plate reader (Molecular Devices). EB dye was excited at a wavelength of 530 nm and emitted at a wavelength of 620 nm.

P2X4R = molecular target: T3, P2X4R (Rattus norvegicus, UniProt P51577); assay: ATP-induced [Ca2+]i shifts potentiated by ivermectin in NR8383 alveolar macrophage cell line; format: cell-based; settings: 10 μM; NR8383 cells
T3 construct: endogenous in cells; host or cells: NR8383 rat alveolar macrophage cell line
T3 sequence (P51577 1-388): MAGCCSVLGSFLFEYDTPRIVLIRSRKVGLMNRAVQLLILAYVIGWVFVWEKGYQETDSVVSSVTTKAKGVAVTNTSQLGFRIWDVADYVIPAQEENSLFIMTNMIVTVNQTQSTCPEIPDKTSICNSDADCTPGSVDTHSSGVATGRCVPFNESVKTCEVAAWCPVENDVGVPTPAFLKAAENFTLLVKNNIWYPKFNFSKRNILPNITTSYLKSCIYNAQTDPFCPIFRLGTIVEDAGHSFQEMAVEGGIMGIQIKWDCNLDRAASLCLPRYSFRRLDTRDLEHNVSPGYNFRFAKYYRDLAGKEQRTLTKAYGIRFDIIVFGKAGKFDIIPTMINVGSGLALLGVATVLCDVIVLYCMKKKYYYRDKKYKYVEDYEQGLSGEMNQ

[1] = dye uptake, HEK-293-transfected cells

Compound	Effect on 2MeSADP-activated [Ca2+]i shifts (P2Y12R)	Papp at 60 min (Caco-2 cell permeability) [×10⁻⁶ cm/s]	Potency relative to A740003 (times greater) (human P2X7R; [1])	Potency relative to BBG (times greater) (human P2X7R; [1])	IC50 (human P2X7R) [nM]	Effect on ATP-induced [Ca2+]i shifts potentiated by 1 μM ivermectin (P2X4R)
Cc1cc(C)n(-c2nnc(-c3ccc(F)cc3)s2)n1 [Compound 11c, 2-(3,5-dimethyl-1H-pyrazol-1-yl)-5-(4-fluorophenyl)-1,3,4-thiadiazole]	–	77.9 ± 1	–	–	82 ± 5	–
COc1ccc(CC(=O)NC(NC(=NC#N)Nc2cccc3ncccc23)C(C)(C)C)cc1OC (stereo not drawn) [Compound A740003, N-(1-{[(cyanoimino)(5-quinolinylamino)methyl]amino}-2,2-dimethylpropyl)-2-(3,4-dimethoxyphenyl)acetamide]	not inhibited	–	–	–	97 ± 18	did not inhibit
N#Cc1cnn(-c2nnc(-c3ccc(F)cc3)s2)c1N [Compound 9c]	–	56.1 ± 2.1	–	–	56 ± 2	–

Results, then the molecule that gave them:

Effect on 2MeSADP-activated [Ca2+]i shifts (P2Y12R)	Papp at 60 min (Caco-2 cell permeability) [×10⁻⁶ cm/s]	Potency relative to A740003 (times greater) (human P2X7R; [1])	Potency relative to BBG (times greater) (human P2X7R; [1])	IC50 (human P2X7R) [nM]	Effect on ATP-induced [Ca2+]i shifts potentiated by 1 μM ivermectin (P2X4R)	Compound
not inhibited	73.4 ± 3.3	eight	more than 50 times	11 ± 1	did not inhibit	CCOC(=O)c1cnn(-c2nnc(-c3ccccc3Cl)s2)c1N [Compound 9f]
–	50.1 ± 1.1	–	–	41 ± 8	–	N#Cc1cnn(-c2nnc(-c3ccccc3Cl)s2)c1N [Compound 9b]
